Source: patent US20210255193A1, “LYSINE REACTIVE PROBES AND USES THEREOF” (The Scripps Research Institute, priority 2017, published 2021)

How the values were obtained:
Assay in all cases: direct labeling of recombinantly expressed proteins by gel-based ABPP (WT vs lysine mutant)
Type in all cases: binding
[1] = molecular target: T1, HDHD3 (Homo sapiens, UniProt Q9BSH5); settings: HDHD3 K15, KR mutant; 10 μM probe, 1 h
T1 construct: Flag; expressed in transfected cells; host or cells: HEK 293T
T1 sequence (Q9BSH5 1-251): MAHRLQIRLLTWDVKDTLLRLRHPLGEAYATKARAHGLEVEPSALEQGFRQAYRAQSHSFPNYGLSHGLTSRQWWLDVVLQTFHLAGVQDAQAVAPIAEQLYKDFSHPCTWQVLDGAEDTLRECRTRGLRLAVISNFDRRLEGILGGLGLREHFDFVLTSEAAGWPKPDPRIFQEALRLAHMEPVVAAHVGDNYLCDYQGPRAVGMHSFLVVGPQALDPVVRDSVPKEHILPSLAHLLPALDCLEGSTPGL
Description: (§1) Subcloning and mutagenesis. Unless noted below, genes were amplified from cDNA prepared from low passage HEK 293T cells using the Ribozol RNA extraction reagent (Amresco) and the iScript Reverse Transcription Supermix kit (Bio-Rad). For the following proteins cDNA clones were used for amplification instead: PFKP (5180268, Dharmacon), HK1 (BC008730, transomic), SIN3A (BC137098, transomic), G6PD (BC000337, transomic) and TGIF1 (BC031268, transomic). Mouse CARM1 in pFLAG-CMV-6c was a kind gift from the Mowen lab (TSRI). NUDT2 was obtained as synthesized gene (IDT). DNA was amplified with custom forward and reverse primers using phusion polymerase (NEB, M0530S), digested with the indicated restriction enzyme and ligated into pFLAG-CMV-6c or pRK5 with the appropriate affinity tag. Lysine mutants were generated using QuikChange site-directed mutagenesis using Phusion® High-Fidelity DNA Polymerase and primers containing the desired mutations and their respective complements. The cloning of TTR and its K35A mutant has been described in Choi et al., “Chemoselective small molecules that covalently modify one lysine in a non-enzyme protein in plasma,” Nat. Chem. Biol. 6, 133-139 (2010). TTR was expressed in E. coli and purified as described. For gel-based experiments 1 μM TTR was added into 1 mg ml^−1 soluble MDA-MB-231 lysate.
(§2) Recombinant expression of proteins by transient transfection. HEK 293T cells were grown to 50% confluency in 10 ml DMEM supplemented with 10% fetal bovine serum (FBS), penicillin, streptomycin and glutamine in 10 cm tissue culture dishes. 3 μg of DNA was diluted in 500 μL DMEM and 30 μL of PEI (MW 40,000, 1 mg ml^−1, Polysciences) were added. The mixture was incubated at room temperature for 30 min and added dropwise to the cells. Cells were grown for 48 h at 37° C. with 5% CO2. Cells were washed with cold PBS, scraped with cold PBS and cell pellets were isolated by centrifugation (1,400 g, 3 min, 4° C.), and stored at −80° C. until use. Cell pellets were resuspended in PBS, lysed by sonication and fractionated (100,000 g, 45 min) to yield soluble and membrane fractions. The soluble fraction was adjusted to a final protein concentration of 1 mg ml^−1 for gel-based ABPP experiments.
(§3) Direct labeling of recombinantly expressed proteins by gel-based ABPP. 50 μL of soluble HEK 293T proteome (1 mg ml^−1) expressing the respective protein (WT or KR mutant) or transfected with an empty vector were treated with 10 μM of the indicated probe for 1 h at room temperature. The samples were analyzed as described in the previous section. For quantification of relative labeling of the different protein variants, the intensity of labeling was determined by quantifying the integrated optical intensity of the bands using ImageLab 5.2.1 software (BioRad).

[2] = molecular target: T2, PFKM (Homo sapiens, UniProt P08237); settings: PFKM K678, KR mutant; 10 μM probe, 1 h
T2 construct: expressed in transfected cells; host or cells: HEK 293T
T2 sequence (P08237 1-780): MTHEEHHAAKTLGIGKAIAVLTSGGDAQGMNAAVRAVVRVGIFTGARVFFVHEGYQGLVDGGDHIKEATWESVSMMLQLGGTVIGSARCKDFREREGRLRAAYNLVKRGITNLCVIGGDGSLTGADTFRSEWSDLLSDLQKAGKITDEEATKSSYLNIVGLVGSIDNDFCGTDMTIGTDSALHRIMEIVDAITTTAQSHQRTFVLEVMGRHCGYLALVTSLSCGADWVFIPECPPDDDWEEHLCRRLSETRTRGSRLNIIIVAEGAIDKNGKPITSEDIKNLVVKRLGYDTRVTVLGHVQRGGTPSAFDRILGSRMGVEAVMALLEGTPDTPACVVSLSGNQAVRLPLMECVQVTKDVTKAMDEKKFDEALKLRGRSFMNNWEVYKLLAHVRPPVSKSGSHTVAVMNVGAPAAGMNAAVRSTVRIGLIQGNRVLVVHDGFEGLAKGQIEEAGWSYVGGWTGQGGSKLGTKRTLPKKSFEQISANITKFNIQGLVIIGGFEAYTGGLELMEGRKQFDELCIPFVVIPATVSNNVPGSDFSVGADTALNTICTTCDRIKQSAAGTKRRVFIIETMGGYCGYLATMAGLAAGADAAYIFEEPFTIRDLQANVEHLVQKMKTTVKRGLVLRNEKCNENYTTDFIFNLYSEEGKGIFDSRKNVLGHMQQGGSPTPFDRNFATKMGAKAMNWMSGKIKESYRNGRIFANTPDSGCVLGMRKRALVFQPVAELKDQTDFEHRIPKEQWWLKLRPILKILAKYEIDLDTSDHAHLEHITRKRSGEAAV
Description: as §1, §2, §3

[3] = molecular target: T3, Sin3a (Homo sapiens, UniProt Q96ST3); settings: Sin3a K155, KR mutant; 10 μM probe, 1 h
T3 construct: expressed in transfected cells; host or cells: HEK 293T
T3 sequence (Q96ST3 1-400): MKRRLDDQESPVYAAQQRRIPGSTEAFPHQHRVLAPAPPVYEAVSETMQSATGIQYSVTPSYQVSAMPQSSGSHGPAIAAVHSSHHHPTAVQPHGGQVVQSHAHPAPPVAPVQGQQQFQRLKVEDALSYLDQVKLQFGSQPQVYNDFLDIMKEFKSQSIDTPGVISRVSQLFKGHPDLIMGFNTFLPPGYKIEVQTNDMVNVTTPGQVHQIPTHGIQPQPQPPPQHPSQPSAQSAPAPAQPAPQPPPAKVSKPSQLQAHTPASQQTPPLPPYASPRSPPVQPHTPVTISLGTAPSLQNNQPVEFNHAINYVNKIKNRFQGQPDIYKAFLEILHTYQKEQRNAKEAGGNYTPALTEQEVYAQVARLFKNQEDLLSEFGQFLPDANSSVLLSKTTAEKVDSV
Description: as §1, §2, §3

Structure (SMILES) | labeling of WT vs mutant protein by probe [1] | labeling of WT vs mutant protein by probe [2] | labeling of WT vs mutant protein by probe [3]
C#CCCC(=O)Oc1c(F)c(F)c(S(=O)(=O)[O-])c(F)c1F.[Na+] [probe 1, reference compound] | HD (the WT labeled more than the mutant (>4x difference quantified)) | HD (the WT labeled more than the mutant (>4x difference quantified)) | PD (the WT labeled more than the mutant (>2x difference quantified))
C#CCCC(=O)Oc1c(F)c(F)c(F)c(F)c1F [probe 6, Pentafluorophenyl 4-pentynoate] | HD (the WT labeled more than the mutant (>4x difference quantified)) | ND (the WT did not label more than the mutant (<2x difference quantified)) | HD (the WT labeled more than the mutant (>4x difference quantified))
C#Cc1ccc(C(=O)Oc2ccccc2[N+](=O)[O-])cc1 [probe 10, 2-Nitrophenyl 4-ethynylbenzoate] | HD (the WT labeled more than the mutant (>4x difference quantified)) | PD (the WT labeled more than the mutant (>2x difference quantified)) | HD (the WT labeled more than the mutant (>4x difference quantified))
C#Cc1ccc(C(=O)Oc2c(F)c(F)cc(F)c2F)cc1 [probe 12, 2,3,5,6-Tetrafluorophenyl 4-ethynylbenzoate] | HD (the WT labeled more than the mutant (>4x difference quantified)) | PD (the WT labeled more than the mutant (>2x difference quantified)) | HD (the WT labeled more than the mutant (>4x difference quantified))
C#Cc1ccc(C(=O)Oc2c(F)c(F)c(F)c(F)c2F)cc1 [probe 13, Pentafluorophenyl 4-ethynylbenzoate] | HD (the WT labeled more than the mutant (>4x difference quantified)) | PD (the WT labeled more than the mutant (>2x difference quantified)) | HD (the WT labeled more than the mutant (>4x difference quantified))
Cc1cc(C)n2c1C=C1C=CC(CCC(=O)Oc3c(F)c(F)c(S(=O)(=O)[O-])c(F)c3F)=[N+]1[B-]2(F)F.[Na+] [probe 18, reference compound] | HD (the WT labeled more than the mutant (>4x difference quantified)) | PD (the WT labeled more than the mutant (>2x difference quantified)) | HD (the WT labeled more than the mutant (>4x difference quantified))
